Data published in ChEMBL document CHEMBL1201862, “PubChem BioAssay data set” (2004).
Active and inactive are the calls of the source.

Tests used:
[1] = Luminescence Cell-Based Dose Confirmation HTS to Identify Inhibitors of Platelet Dense Granule Release. [Related pubchem assays: 1663 (Primary HTS), 1678 (Summary of Project)]; format: functional
[2] = target: T1, Short transient receptor potential channel 4 (Mus musculus, UniProt Q9QUQ5); assay: block of DAMGO-driven TRPC4 calcium entry – cell-based, HEK293 TRPC4/mu-opioid, Fluo-4 calcium, dose response (AID 434942); format: functional;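 note: potency of inhibitors blocking the TRPC4 calcium response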
T1 sequence (Q9QUQ5 whole entry): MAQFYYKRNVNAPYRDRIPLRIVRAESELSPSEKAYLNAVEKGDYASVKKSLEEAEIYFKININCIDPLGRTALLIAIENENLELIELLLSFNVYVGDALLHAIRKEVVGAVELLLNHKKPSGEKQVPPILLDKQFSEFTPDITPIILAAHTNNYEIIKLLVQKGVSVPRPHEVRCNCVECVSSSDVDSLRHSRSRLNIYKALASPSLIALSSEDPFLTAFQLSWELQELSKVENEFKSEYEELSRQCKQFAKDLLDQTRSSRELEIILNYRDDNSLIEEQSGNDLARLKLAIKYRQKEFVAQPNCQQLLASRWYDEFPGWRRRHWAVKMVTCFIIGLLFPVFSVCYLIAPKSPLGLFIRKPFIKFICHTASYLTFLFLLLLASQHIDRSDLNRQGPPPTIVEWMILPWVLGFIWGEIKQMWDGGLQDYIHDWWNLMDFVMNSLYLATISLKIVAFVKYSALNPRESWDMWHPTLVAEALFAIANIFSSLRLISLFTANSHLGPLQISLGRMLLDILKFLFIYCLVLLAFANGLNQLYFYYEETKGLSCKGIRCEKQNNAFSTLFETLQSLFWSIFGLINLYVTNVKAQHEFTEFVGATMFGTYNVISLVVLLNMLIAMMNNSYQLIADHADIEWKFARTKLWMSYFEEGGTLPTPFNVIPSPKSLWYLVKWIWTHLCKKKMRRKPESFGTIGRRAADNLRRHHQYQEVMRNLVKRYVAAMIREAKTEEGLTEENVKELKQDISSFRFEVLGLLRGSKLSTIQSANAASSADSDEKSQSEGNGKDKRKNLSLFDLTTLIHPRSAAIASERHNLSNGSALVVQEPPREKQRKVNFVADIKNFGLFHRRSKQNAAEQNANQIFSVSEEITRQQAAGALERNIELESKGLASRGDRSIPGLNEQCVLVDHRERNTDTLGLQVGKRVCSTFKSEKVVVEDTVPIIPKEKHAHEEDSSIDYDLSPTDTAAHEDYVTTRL

[3] = target: Luciferin 4-monooxygenase (Photinus pyralis, UniProt P08659); assay: inhibition of purified Photinus pyralis luciferase – biochemical, luminescence, dose response (AID 1891)
Protein Wnt-3a = Protein Wnt-3a (Mus musculus, UniProt P27467); assay: antagonism of Wnt3a pathway luciferase reporter – Wnt-LIGHT cells, luminescence, selectivity assay for Gli-SUFU antagonist project, dose response (AID 651570); format: functional; conditions: read-out: IC50_Mean;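 note: Wnt-LIGHT reporter cells stimulated with conditioned medium from Wnt3a-producing cells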
[4] = intracellular Trypanosoma cruzi inhibitors in host cells – cell-based, plate reader, cherry-pick samples, set 3, dose response (AID 651818); format: functional;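 note: compounds incubated with infected cells for about four days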
[5] = DRD fibroblast viability loss – cell-based, non-viral oncogenic, luminescence, dose response (AID 1934); format: functional; conditions: Homo sapiens
BJ [6] = assay: cells; format: functional, cell-based; conditions: Homo sapiens
BJ [7] = assay: BJ-TERT fibroblast viability loss – cell-based, RAS-independent, luminescence, dose response (AID 1933); format: functional; conditions: Homo sapiens
BJ [8] = assay: BJ-TERT-LT-ST fibroblast viability loss – cell-based, RAS-independent, luminescence, dose response (AID 1935); format: functional; conditions: Homo sapiens;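 note: BJ fibroblasts immortalized with TERT plus LT and ST oncogenes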
[9] = HEK-293T viability loss after treatment – luminescence, T-cell screen hits, cytotoxicity control for TCR NF-kB inhibitor project, dose response (AID 489026); format: functional, cell-based;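 note: cells exposed to compound about 14 hours before the viability readout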
Cytochrome P450 3A4 = Cytochrome P450 3A4 (Homo sapiens, UniProt P08684); conditions: Potency;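 note: confirmatory qHTS run detecting inhibitors and substrates of CYP3A4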
INS1 = assay: INS-1E survival protection against cytokine death – cell-based, luminescence, retest, dose response (AID 449756); format: functional; conditions: Rattus norvegicus;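 note: cell death triggered by IL-1 beta plus TNF-alpha plus IFN-gamma mixture; protective hits raise ATP signal compared with cytokine alone wells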
[10] = Luminescence Cell-Based Dose Retest to Confirm Inhibitors of Cancer Stem Cells. [Related pubchem assays (depositor defined):AID2717, AID2721]; format: functional; conditions: Homo sapiens
HEK293 [11] = assay: NOD2 signaling inhibitors in MDP-stimulated cells, cell-based, uHTS, luminescence (AID 2001); format: functional; conditions: Homo sapiens
HEK293 [12] = assay: cells; format: functional, cell-based; conditions: Homo sapiens
HEK293 [13] = assay: cells; format: functional, cell-based; conditions: Homo sapiens; remark: listed apart in the source
HEK293 [14] = assay: inhibition of NOD1-driven NF-kB reporter – cell-based, luminescence, uHTS, primary screen (AID 1578); format: functional; conditions: Homo sapiens

Sequence of Cytochrome P450 3A4 (P08684 whole entry): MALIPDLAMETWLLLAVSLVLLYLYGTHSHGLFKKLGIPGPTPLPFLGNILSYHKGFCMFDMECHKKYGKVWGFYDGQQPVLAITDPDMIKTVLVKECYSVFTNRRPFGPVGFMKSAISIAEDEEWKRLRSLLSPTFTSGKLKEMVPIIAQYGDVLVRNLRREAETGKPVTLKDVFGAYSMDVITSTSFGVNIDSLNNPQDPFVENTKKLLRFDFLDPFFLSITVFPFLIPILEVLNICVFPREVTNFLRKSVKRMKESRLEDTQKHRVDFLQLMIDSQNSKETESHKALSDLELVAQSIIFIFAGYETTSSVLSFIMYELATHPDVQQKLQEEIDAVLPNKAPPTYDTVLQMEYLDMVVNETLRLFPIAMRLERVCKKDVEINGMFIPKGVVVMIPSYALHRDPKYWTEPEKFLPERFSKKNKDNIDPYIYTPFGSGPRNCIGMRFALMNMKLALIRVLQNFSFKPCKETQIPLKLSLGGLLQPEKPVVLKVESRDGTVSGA
Sequence of Protein Wnt-3a (P27467 whole entry): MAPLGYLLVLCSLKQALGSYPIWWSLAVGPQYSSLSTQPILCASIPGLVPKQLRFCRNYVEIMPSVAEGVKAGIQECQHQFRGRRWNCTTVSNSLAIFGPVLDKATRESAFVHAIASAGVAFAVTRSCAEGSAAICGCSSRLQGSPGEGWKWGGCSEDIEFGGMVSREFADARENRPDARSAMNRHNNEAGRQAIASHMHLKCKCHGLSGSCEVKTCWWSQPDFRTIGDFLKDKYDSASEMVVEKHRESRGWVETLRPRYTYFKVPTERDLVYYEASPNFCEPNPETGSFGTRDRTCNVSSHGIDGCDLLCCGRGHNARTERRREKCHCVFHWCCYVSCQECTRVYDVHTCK
Sequence of Luciferin 4-monooxygenase (P08659 whole entry): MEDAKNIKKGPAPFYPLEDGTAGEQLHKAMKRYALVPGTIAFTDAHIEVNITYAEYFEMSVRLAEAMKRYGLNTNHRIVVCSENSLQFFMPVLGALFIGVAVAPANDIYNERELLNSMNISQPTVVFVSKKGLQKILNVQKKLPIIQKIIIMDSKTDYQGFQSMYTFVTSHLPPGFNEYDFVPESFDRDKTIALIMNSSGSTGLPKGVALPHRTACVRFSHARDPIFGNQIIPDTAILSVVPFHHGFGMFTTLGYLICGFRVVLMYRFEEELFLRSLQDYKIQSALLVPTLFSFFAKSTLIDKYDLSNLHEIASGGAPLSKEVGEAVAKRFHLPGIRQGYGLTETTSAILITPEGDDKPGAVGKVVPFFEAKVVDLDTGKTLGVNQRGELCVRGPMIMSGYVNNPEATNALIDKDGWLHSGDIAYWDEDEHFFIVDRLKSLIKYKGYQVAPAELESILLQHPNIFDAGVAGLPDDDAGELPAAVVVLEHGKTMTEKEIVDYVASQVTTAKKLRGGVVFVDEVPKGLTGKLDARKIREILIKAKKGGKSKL

CCCCC(=O)N(c1ccc(C(=O)O)cc1)c1nc(-c2ccc(Cl)cc2)c(CC)s1
EC50 [1]: > 112 µM (not active) | EC50 [2]: 10.6 µM (active) | EC50 [3]: > 112 µM (not active)

Cn1nc(CC(=O)NCc2ccc(C(F)(F)F)cc2)c2ccccc2c1=O
IC50 (Protein Wnt-3a): 1.09 µM (active)

C[C@@H]1CN([C@@H](C)CO)C(=O)Cc2cc(NC(=O)Nc3cccc4ccccc34)ccc2O[C@@H]1CN(C)Cc1ccc(Cl)c(Cl)c1
AC50 [4]: 3.21 µM (active)

C[C@H]1CN([C@@H](C)CO)C(=O)c2cccc(NC(=O)C3CC3)c2O[C@@H]1CN(C)Cc1ccc(Oc2ccccc2)cc1
AC50 [4]: 3.64 µM (active)

CCN(CC)Cc1cc(CCNC(=O)c2ccc(Cl)cc2)ccc1O
EC50 [2]: 4.73 µM (active)

CCOc1ccc(N(CC(=O)Nc2ccccc2C)S(=O)(=O)c2c(C)noc2C)cc1
EC50 [5]: 4.15 µM (active) | EC50 (BJ [6]): 29.9 µM (active) | EC50 (BJ [7]): 5.06 µM (active) | EC50 (BJ [8]): 16.9 µM (active) | IC50 [9]: > 80 µM (inactive)

COC(=O)CC1C(C)(C)C(OC(C)=O)C2CC3=C4CC(=O)OC(c5ccoc5)[C@]4(C)CCC3[C@@]1(C)C2=O (stereo partly drawn)
AC50 (Cytochrome P450 3A4): 1.58 µM (inconclusive)

COCCNc1nc2c(c(=O)n(C)c(=O)n2C)n1Cc1cccc(C(F)(F)F)c1
IC50 (Protein Wnt-3a): 5.24 µM (active) | AC50 (INS1): 6.6 µM (active)

CC[C@]1(O)CC(O[C@@H]2CC(N(C)C)C(O)C(C)O2)c2c(cc3c(c2O)C(=O)c2c(O)cccc2C3=O)C1C(=O)OC (stereo partly drawn)
AC50 (Cytochrome P450 3A4): 39.8 µM (inconclusive)

NC(=O)c1nsc(C(=O)N(Cc2ccccc2F)C(C(=O)NCC2CCCO2)c2ccc(F)cc2)c1N (stereo not drawn)
EC50 [2]: 0.473 µM (active)

C[C@@H]1CN([C@H](C)CO)C(=O)c2cccc(NS(=O)(=O)c3ccc(F)cc3)c2O[C@@H]1CN(C)Cc1ccc(C(=O)Nc2ccccc2N)cc1
AC50 [4]: 2.86 µM (active)

CCCC(=O)Nc1nc2ccc(NC(=O)c3c(F)c(F)c(OC)c(F)c3F)cc2s1
EC50 [5]: 2.2 µM (active) | EC50 (BJ [6]): > 150 µM (not active) | AC50 [10]: 0.367 µM (active) | EC50 (BJ [7]): 4.47 µM (active) | EC50 (BJ [8]): 77.5 µM (inconclusive) | IC50 [9]: > 80 µM (inactive)

COc1cc(/C=N/Nc2nc3c(c(=O)n(C)c(=O)n3C)n2Cc2ccccc2)ccc1OC(=O)c1ccco1
IC50 (HEK293 [11]): 5.98 µM (active) | IC50 (HEK293 [12]): 12.3 µM (active) | IC50 (HEK293 [13]): 3.73 µM (active) | EC50 (HEK293 [14]): 5.22 µM (active)
